Results taken from patent US20230097866A1, “BACTERIAL TOPOISOMERASE INHIBITORS DERIVED FROM ISOMANNIDE” (Ohio State Innovation Foundation, priority 2020, published 2023).
Converted amounts (≈) assume the structure as drawn. Like-named read-outs stand apart in the source and are kept apart here.

Experiments:
[1] = system: S. aureus strain isolated from a cystic fibrosis patient; assay: MIC, CLSI broth microdilution, CF isolate; type: cell-based; conditions: Staphylococcus aureus; CLSI broth microdilution; read-out: MIC CF isolate
[2] = system: Acinetobacter baumannii LSI-2957; assay: MIC panel (Laboratory Specialists, Inc.), A. baumannii; type: cell-based; conditions: LSI2957, Cmpd. 6, CLSI broth microdilution
[3] = system: Enterobacter cloacae LSI-2943; assay: MIC panel (Laboratory Specialists, Inc.), E. cloacae; type: cell-based; conditions: LSI2943, Cmpd. 6, CLSI broth microdilution
[4] = system: S. aureus ATCC 29213; type: cell-based, Staphylococcus aureus; conditions: S. aureus ATCC 29213
[5] = target: T1, Nav1.5 Late Current Human Ion Channel (Homo sapiens, UniProt Q14524); type: cell-based; conditions: in presence of 30 nM ATXII
T1 construct: expressed in transfected cells
From the text: Early drug discovery programs commonly assess hERG inhibition as the only indicator of potential cardiovascular safety concerns. Researchers have recently recommended a more rigorous evaluation of multiple cardiac ion channels to provide a more comprehensive cardiovascular risk assessment (Fermini, B., et al., A New Perspective in the Field of Cardiac Safety Testing through the Comprehensive In Vitro Proarrhythmia Assay Paradigm. J. Biomolec. Screening 2016, 21, 1-11). Given the promising initial results for 6, further evaluation was undertaken (in duplicate) in a Comprehensive in vitro Proarrhythmia Assay (CiPA) eight assay panel run on the QPatch HT (Sophion, Denmark) automated patch clamp system at three concentrations (3, 30, and 100 μM). All data were filtered for seal quality, seal drop, and current amplitude. A stock solution of the test compound at 30 mM concentration was prepared in DMSO.
The parameters measured were the maximum inward current (charge) evoked on stepping to −15mV from the test pulse in the presence of 30 nM ATXII. The peak and ramp current (charge) amplitude was calculated before and after compound addition and the amount of current (charge) was assessed by dividing the Test compound current (charge) by the Control current (charge). Control is the mean hNav1.5 late current (charge) collected 15 seconds at the end of the control (30 nM ATXII); Test Compound is the mean hNav1.5 current (charge) collected in the presence of test compound and 30 nM ATXII at each concentration. The positive control was ranolizine.

[6] = target: Norepinephrine transporter (Homo sapiens, UniProt P23975); assay: Off-target safety panel, norepinephrine transporter; type: binding; conditions: duplicate, read-out: % Inhibition at 100 μM conc., Norepinephrine transporter
Protocol: (§1) Potential off-target pharmacology for compound 6 was also evaluated by screening in duplicate against a panel (Bowes, J., et al., Reducing Safety-Related Drug Attrition: The Use of in vitro Pharmacological Profiling. Nat. Rev. Drug Disc. 2012, 11, 909-922) of 44 receptors, enzymes, etc. Of the 44 potential targets, only five were inhibited by >50% at a concentration of 100 μM (Table 7).

[7] = system: Nav site 2; assay: Off-target safety panel, Nav site 2; type: binding; conditions: duplicate
Protocol: as §1

[8] = system: HepaRG cells; assay: ATP viability cytotoxicity assay in HepaRG cells; type: cell-based; conditions: 24 hours
Protocol: The cytotoxicity of compound 6 was measured using an ATP viability assay in HepaRG cells, with a five-point concentration-response curve (Table 8).
HepaRG cells were plated in a collagen coated 96-well plate overnight and treated the next day with test compounds and controls for 24 hours. Tamoxifen was used as a positive control compound for cytotoxicity (25 μM). After 24 hours, the plate was equilibrated to room temperature for 30 minutes and Cell Titer-Glo Reagent was added. Luminescence was measured using an EnSpire multimode plate reader. Data were reported as % cytotoxi city compared to vehicle treated control.
Cytotoxicity was determined by calculating the percentage of vehicle control: […]

[9] = target: T2, CYP2B6 (Homo sapiens, UniProt P20813); assay: CYP450 inhibition in human liver microsomes, CYP2B6; type: in vitro ADME; conditions: 10 μM
T2 construct: incubated with human liver microsomes (mixed gender, pool of 50 donors, 0.1 mg/mL); from tissue; host or cells: human liver microsomes, pool of 50 donors
Protocol: (§2) CYP450 inhibition assays was conducted using individual enzyme substrates and inhibitors instead of a cocktail to avoid interferences. CYP450 isoforms tested included the following: CYP1A2, CYP2B6, CYP2C8, CYP2C9, CYP2C19, CYP2D6, and CYP3A4. Each test compound was screened at a final concentration of 10 μM. Each test compound was incubated with human liver microsomes (mixed gender, pool of 50 donors, 0.1 mg/mL), CYP450-selective probe substrates, and co-factors (NADPH, MgCl2) in phosphate buffer (pH 7.4) for 10-30 min in a 96-well plate at 37° C. The reactions were stopped by transferring the reaction mixture to acetonitrile/methanol. Samples were mixed and centrifuged, and the supernatants analyzed by LC-MS/MS to quantify percent inhibition relative to vehicle control.

[10] = target: T3, CYP2C19 (Homo sapiens, UniProt P33261); assay: CYP450 inhibition in human liver microsomes, CYP2C19; type: in vitro ADME; conditions: 10 μM
T3 construct: incubated with human liver microsomes (mixed gender, pool of 50 donors, 0.1 mg/mL); from tissue; host or cells: human liver microsomes, pool of 50 donors
Protocol: as §2

[11] = target: T4, CYP2D6 (Homo sapiens, UniProt P10635); assay: CYP450 inhibition in human liver microsomes, CYP2D6; type: in vitro ADME; conditions: 10 μM
T4 construct: incubated with human liver microsomes (mixed gender, pool of 50 donors, 0.1 mg/mL); from tissue; host or cells: human liver microsomes, pool of 50 donors
Protocol: as §2

T1 sequence (Q14524 whole entry): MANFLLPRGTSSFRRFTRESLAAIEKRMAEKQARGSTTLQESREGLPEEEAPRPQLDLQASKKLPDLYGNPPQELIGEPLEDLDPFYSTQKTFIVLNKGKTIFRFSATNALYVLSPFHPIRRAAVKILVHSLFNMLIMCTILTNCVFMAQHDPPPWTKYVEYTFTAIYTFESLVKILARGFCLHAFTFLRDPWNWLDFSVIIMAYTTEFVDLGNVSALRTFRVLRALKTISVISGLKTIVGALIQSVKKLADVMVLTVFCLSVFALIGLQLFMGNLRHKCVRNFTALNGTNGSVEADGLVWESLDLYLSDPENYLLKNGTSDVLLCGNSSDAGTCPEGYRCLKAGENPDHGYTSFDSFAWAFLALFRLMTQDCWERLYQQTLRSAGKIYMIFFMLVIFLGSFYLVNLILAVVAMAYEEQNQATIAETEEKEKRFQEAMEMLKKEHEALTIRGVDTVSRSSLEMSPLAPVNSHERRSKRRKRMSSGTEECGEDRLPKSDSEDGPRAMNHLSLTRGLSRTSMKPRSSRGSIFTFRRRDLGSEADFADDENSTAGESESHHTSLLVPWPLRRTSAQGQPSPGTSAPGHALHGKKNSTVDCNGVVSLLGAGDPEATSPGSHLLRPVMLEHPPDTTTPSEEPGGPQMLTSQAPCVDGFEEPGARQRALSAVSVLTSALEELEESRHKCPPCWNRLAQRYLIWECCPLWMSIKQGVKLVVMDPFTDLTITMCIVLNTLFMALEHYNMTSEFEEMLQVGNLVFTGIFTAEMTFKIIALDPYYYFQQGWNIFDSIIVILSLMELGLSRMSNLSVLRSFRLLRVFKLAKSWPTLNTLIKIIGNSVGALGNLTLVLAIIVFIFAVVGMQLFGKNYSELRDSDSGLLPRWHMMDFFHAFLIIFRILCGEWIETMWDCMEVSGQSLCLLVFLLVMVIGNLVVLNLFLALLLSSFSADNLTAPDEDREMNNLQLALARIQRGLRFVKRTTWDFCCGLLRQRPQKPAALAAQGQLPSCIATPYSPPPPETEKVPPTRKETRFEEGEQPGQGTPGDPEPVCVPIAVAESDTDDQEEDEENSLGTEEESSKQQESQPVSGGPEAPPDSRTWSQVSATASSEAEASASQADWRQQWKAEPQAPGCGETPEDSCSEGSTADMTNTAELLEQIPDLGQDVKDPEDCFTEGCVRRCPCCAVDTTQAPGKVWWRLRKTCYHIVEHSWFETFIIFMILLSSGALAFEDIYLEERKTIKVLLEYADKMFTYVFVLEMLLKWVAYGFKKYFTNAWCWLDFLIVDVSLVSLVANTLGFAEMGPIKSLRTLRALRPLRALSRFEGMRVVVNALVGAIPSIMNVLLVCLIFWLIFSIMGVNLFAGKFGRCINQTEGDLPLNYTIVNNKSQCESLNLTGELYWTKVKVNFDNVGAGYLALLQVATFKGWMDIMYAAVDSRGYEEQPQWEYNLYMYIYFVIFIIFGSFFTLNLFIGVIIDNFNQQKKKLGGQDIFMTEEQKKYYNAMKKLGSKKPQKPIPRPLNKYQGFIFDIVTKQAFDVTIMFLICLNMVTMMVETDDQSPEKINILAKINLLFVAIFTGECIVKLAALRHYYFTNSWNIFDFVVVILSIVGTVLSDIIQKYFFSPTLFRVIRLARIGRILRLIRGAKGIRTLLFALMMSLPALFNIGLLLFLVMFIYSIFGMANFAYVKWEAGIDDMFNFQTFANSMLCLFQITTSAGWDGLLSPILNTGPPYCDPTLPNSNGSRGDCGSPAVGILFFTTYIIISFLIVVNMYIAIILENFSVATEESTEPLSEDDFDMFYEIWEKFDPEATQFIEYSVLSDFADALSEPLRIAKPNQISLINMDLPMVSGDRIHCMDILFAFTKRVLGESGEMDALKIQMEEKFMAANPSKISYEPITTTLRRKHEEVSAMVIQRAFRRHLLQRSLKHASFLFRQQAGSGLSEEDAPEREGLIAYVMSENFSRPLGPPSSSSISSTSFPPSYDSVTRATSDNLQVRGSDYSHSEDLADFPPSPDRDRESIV
Chain of Norepinephrine transporter (P23975 whole entry, species assumed): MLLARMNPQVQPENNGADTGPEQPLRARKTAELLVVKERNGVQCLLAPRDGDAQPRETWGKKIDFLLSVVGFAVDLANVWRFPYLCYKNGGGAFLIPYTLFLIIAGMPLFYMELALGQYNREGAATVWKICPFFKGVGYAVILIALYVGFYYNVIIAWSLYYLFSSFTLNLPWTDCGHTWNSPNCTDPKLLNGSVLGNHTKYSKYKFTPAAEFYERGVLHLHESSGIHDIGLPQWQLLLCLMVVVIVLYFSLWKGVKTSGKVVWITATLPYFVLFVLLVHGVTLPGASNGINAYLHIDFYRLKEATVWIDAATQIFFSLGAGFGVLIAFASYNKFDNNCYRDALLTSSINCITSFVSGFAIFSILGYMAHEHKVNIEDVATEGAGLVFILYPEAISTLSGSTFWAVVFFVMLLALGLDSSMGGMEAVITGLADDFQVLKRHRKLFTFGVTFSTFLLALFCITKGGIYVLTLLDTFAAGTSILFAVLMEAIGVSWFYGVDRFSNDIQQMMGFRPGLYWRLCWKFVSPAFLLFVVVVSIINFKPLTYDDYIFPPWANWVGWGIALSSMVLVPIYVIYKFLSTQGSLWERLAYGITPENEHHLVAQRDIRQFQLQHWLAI
T4 sequence (P10635 whole entry): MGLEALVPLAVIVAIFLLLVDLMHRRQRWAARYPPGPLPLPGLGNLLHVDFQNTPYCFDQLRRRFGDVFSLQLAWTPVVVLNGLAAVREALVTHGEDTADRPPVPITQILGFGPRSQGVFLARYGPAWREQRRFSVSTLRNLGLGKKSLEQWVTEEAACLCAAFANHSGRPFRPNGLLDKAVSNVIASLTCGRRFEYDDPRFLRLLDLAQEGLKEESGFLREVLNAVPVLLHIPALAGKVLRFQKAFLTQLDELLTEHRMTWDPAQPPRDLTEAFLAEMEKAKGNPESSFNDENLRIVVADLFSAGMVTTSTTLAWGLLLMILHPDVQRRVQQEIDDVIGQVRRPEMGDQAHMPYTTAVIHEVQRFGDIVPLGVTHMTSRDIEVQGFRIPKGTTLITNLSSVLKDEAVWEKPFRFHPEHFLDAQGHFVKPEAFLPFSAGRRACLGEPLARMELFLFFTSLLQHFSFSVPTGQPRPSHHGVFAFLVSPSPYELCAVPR
T2 sequence (P20813 whole entry): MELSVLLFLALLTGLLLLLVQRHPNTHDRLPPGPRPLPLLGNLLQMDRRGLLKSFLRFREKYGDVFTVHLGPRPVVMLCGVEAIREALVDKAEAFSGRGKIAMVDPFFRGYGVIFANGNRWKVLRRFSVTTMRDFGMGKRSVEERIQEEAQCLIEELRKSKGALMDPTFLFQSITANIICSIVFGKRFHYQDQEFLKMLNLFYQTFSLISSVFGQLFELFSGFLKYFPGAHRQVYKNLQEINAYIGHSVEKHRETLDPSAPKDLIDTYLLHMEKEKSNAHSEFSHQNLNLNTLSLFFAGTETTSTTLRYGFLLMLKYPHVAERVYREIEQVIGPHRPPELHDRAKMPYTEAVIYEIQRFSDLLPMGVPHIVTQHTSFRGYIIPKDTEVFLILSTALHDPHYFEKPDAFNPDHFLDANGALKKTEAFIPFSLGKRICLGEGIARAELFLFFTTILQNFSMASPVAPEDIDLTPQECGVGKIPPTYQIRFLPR
T3 sequence (P33261 whole entry): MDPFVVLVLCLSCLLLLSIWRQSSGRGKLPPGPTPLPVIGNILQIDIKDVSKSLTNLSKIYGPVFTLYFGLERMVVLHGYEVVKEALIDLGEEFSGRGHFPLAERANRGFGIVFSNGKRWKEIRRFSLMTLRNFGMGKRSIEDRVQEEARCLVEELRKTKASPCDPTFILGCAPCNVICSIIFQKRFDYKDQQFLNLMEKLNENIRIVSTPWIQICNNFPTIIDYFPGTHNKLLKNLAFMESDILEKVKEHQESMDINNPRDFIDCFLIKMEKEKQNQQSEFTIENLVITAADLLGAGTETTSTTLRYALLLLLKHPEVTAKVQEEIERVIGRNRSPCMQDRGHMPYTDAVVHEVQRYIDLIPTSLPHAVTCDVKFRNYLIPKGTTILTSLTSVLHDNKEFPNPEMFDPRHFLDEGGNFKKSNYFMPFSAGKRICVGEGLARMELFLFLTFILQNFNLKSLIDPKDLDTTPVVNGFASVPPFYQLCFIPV

`COc1ccc2ncc(F)c(CC[C@@]3(O)CO[C@@H]4[C@@H](NCc5cc6c(cn5)OCCO6)CO[C@@H]43)c2n1` [Compound 6, (3R, 3aS,6S,6aR)-6-(((2,3-dihydro-[1,4]dioxino[2,36-c]pyridin-7-yl)methyl)amnino)-3-(2-(3-fluoro-6-methoxy-1,5-naphthyridin-4-yl)ethyl)hexahydrofuro[3,2-b]furan-3-ol] was tested, and the MIC [1] was 2 µg/mL (≈ 4.01 µM), the MIC [2] was at most 0.12 µg/mL and the MIC [3] was 16 µg/mL (≈ 32.1 µM). For the same molecule, the “Spontaneous mutation frequency (8X MIC)” value ([4]; 8X agar dilution MIC) was 7.89 × 10^−8 (n = 1), the “Spontaneous mutation frequency (16X MIC)” value ([4]; 16X agar dilution MIC) was 1.57 × 10^−9 (n = 1) and the “% Inhibition Nav1.5 Late (antagonist - inhibition of ATXII EC50 current)” value (from here on “% Inhibition Nav1.5 Late”) ([5]; 3 μM) was 4.3%. For the same molecule, the “% Inhibition Nav1.5 Late” value ([5]; 30 μM) was 19.1%, the “% Inhibition Nav1.5 Late” value ([5]; 100 μM) was 50.9% and the inhibition at 100 µM [6] was 68%. The “% Inhibition at 100 μM conc., Nav site 2” value [7] was 78%, the “% Cytotoxicity” value ([8]; 0.01 μM) was 6% and the “% Cytotoxicity” value ([8]; 0.1 μM) was 4%. For the same molecule, the “% Cytotoxicity” value ([8]; 1 μM) was 9%, the “% Cytotoxicity” value ([8]; 10 μM) was 8% and the CYP2B6 inhibition [9] was “Less than 50%”. The CYP2C19 inhibition [10] was “Less than 50%” and the CYP2D6 inhibition [11] was “Less than 50%”.
